Entries after “also recorded” stand apart in the source; their conditions may differ.
Tests used:
[1] = test system: normal wound healing; conditions: therapeutic dose levels; cited from earlier work
[2] = Drug content of PLGA pellets; type: physicochemical
Procedure: Drug-loaded PLGA pellets were made by the hot-melt extrusion method (Leelakanok et al., […]; Danyuo et al., 2017). The goal was to load the maximum amount of drug possible in the pellets, which varies depending on the physical and chemical properties of the drugs and their behavior during the hot melt extrusion process. The maximum doses carried in PLGA pellets were 120±3.6 μg SSZ/mg pellet, 126±5 μg BAPN/mg pellet, and 250±3.2 μg CHP/mg pellet. In vitro tests confirmed the drugs and pellets were not cytotoxic (FIG. 40).
To determine the drug content of the pellets, the pellets were individually dissolved in chloroform (500 μL) and then mixed with 1 mL water to let the active ingredient migrate to the aqueous phase for at least 30 minutes. Drug elution profiles were characterized in vitro prior to implantation. Elution was measured by incubation of the pellets in phosphate buffered saline (PBS) at 37° C. in a shaking incubator set to 300 rpm (FIGS. 30B, C, and D) (Leelakanok et al., 2018; Danyuo et al., 2017). At each time point, PBS was removed from the pellets and replaced with fresh PBS. The amount of BAPN released at each time point was determined using a Fluorescamine assay followed by fluorescent spectroscopy (excitation wavelength: 390 nm, emission wavelength: 475 nm). The amount of CHP released at each time point was determined by hydroxyproline assay with spectrophotometric detection at 560 nm. The amount of SSZ released at each time point was determined using UV spectroscopy at 359 nm.

[3] = test system: α-SMA expression in JCFs; assay: α-SMA immunostaining of JCFs from treated joints; type: cell-based, rabbit; conditions: versus control
Procedure: (§1) Capsule tissues were harvested and transferred to a T-75 flask with 15 mL of Dulbecco's Modified Eagle Medium/Ham's Formula-12 Nutrient Mixture (DMEM/F-12) media containing 10% fetal bovine serum (FBS), 1% Penn Strep, and 1% Amphotericin B, and incubated at 37° C. in a 5% O2, 5% CO2 atmosphere for about 5 days to allow cells to migrate out of the tissue and adhere to the plate. The JCFs were cultured until confluent (about 2 weeks) before analysis.
JCFs were seeded at a density of 10,000 cells per […] on UV-sterilized glass coverslips. After 48 hours, the medium was discarded and the samples were washed with Dulbecco's PBS (DPBS). The samples were fixed in 4% paraformaldehyde for 1 hour and then rinsed thrice with DPBS. The cells were then permeabilized with 0.5% Triton X for 5 minutes at room temperature and blocked with 10% goat serum for 30 minutes. The samples were then incubated with an anti-α-SMA mouse monoclonal antibody (Abcam) at a 1:100 dilution in DPBS overnight at 4° C. After washing in DPBS, the cells were blocked with goat serum for 30 minutes at 37° C. and then incubated with a fluorophore-conjugated goat anti-mouse IgG secondary antibody (488 excitation) (Life Technologies) at a 1:100 dilution for 30 minutes at 37° C. Cells were then washed thrice with DPBS, incubated with phalloidin at a 1:100 dilution for 30 minutes at 37° C., and then mounted with 4′,6-diamidino-2-phenylindole (DAPI)-containing mounting medium. Stained sections were imaged using an Olympus FV1000 confocal microscope. Percent positive α-SMA (immunostained/DAPI-stained×100) was evaluated in at least 4 microscope fields using ImageJ.

[4] = test system: stifle joint stiffness; assay: Flexion-extension testing, rabbit stifle joint immobilization model; type: in vivo; conditions: 8 weeks after pellet implantation; for Maximum torque (joint stiffness): versus blank pellet control
From the text: (§2) The minimal number of animals was used to assess the specific aims of this study. Eight-rabbits were included in each of the treatment groups. […] Non-immobilized, untreated (normal) joints were included to provide normative baselines for joint mobility and histologic outcomes. The study included this normal group, as well as an immobilized group implanted with blank pellets (control), and immobilized groups treated with BAPN-, CHP-, or SSZ-loaded pellets. Joints were immobilized for 8 weeks to establish arthrofibrosis/capsule contracture as previously described (Nesterenko et al., 2009). Kirschner-wires (K-wires) were then removed and the various pellets implanted in the joint. After another 8 weeks the animals were euthanized, and the joints immediately tested for stiffness in extension and anterior-posterior (A-P) laxity. Capsule tissues were harvested for histology to evaluate in situ α-SMA expression and intima thickness, and for in vitro quantitation of cellular contractile activity and α-SMA expression.
Flexion-extension testing of normal and fibrotic joints was performed immediately after euthanasia, when limbs were disarticulated at the hip, stripped of skin and muscle, and fastened securely to a custom testing device equipped with a stepper motor and a 10 N load cell and controlled by a computer with a custom LabVIEW (National Instruments)-based program (FIG. 38) (Hildebrand et al., 2004; Nesterenko et al., 2009). Starting at 10° of extension, the limbs were driven to 170° of extension, and then returned to the starting position at a rotational velocity of 5°/s while continuously recording load and position. The starting extension angle was measured using a digital protractor (Barry Wixey Development) (FIG. 39). The peak torque at maximum extension (N-m) and dissipated energy (mJ) were derived as measures of joint stiffness. The increased hysteresis in immobilized joints arises from posterior capsule stiffening, which restricts extension, but not flexion.

[5] = test system: joint capsule fibroblasts (JCFs); assay: Collagen gel compaction assay with JCFs from treated joints; type: cell-based, rabbit; conditions: for Compaction rate: first 12 hours of incubation, versus control; for Maximum compaction at 48 hours: cells from immobilized treated joints versus control joints
Procedure: as §1
Collagen gel compaction assays were used to determine the contractile activity of JCFs isolated from variously treated rabbits (Yuda & McCulloch, 2018). Collagen gels were produced by combining 10×PBS containing phenol red, 1N NaOH, and rat tail type I collagen (2 mg/mL) (Invitrogen), and JCFs to give a final cell concentration of 1×10^6 cells/mL. Five hundred μL of the collagen gel mixture was added to each well in a 24-well plate and allowed to polymerize for 30 minutes in an incubator. After 30 minutes, 500 μL of DMEM containing 10% FBS and 50 μg/mL ascorbic acid was added to each well. The plates were then incubated for 24 hours to allow the cells to generate a state of isometric tension. After 24 hours, the medium was replaced with 500 μL of fresh DMEM containing 10% FBS and ascorbic acid. After 48 hours, the gels were detached from the walls of the wells using a sterile spatula to allow the cells to freely compact the gels. Images were acquired over the next 48 hours, and the changes in gel cross sectional area were measured with ImageJ.
DNA assays were used to control for well-well variations in cell numbers that could affect the rate and extent of gel compaction. After 48 hours of compaction, the medium was aspirated and the gels were washed with PBS thrice. Five hundred μL of 0.25 mg/mL collagenase was added and the plates incubated at 37° C. overnight. Cell pellets were collected by centrifuging at 500 g for 10 minutes. The supernatants were discarded and the pellets frozen at −80° C. overnight. After thawing at room temperature, the pellets were suspended in 1.0 mL of RNAse/DNAse-free water and then sonicated for 30 minutes. DNA concentrations were measured using 0.2 μg/mL of Hoechst 33342 in 10×TNE buffer (100 mM Tris, 2.0 M NaCl, and 10 mM EDTA at pH 7.4) with excitation and emission wavelengths at 360 nm and 460 nm respectively with calf thymus DNA as a standard. A calibration curve was generated to relate DNA concentration to the number of JCFs in the cultures.

[6] = test system: PTOA after intra-articular fracture; conditions: 12 months post-IAF; cited from earlier work
[7] = test system: PTOA after intra-articular fracture; assay: Porcine intra-articular fracture (IAF) model; type: in vivo, Yucatan minipig; conditions: 6 months post-IAF; intra-articular injection, 2.5 mM; anatomically-reduced joints
From the text: Yucatan Minipig Intra-articular Fracture Model. The Yucatan minipig model was developed to create an IAF of a reproducible severity without arthrotomy (Goetz et al., 2015). Under general anesthesia, an antero-medial approach to the hock joint, which is analogous to the human ankle joint, is made without disrupting the joint capsule. […] A stress-rising saw cut is made through the anterior tibial cortex, stopping 1-2 mm proximal to the subchondral bone. Two drill holes are made proximal to the saw cut into which a plate with a ball-joint is press fit. This ball joint interfaces with the instrumented sled on our impaction pendulum to rigidly support the tibia. The pendulum delivers a 40 J impact to the impaction tripod, driving the talus against the distal tibia causing a fracture of the distal tibia that is guided by the stress-rising saw cut. The result is a fracture fragment that consists of the anterior third of the distal tibial articular surface which is fixed using standard open reduction and internal fixation (ORIF) techniques (FIG. 12). […] In this study it is determined if lubricin gene therapy is an effective adjunct to amobarbital at the later time point, with or without residual incongruity; thus, all animals in this study survive to 12 months post-fracture. […]

[8] = test system: fibrosis in a rat stifle joint immobilization model; conditions: in vivo; cited from earlier work
[9] = test system: synovial intima; assay: Capsule histology, synovial intimal thickness; type: in vivo, rabbit; conditions: immobilization-induced increase, versus control
From the text: as §2
Portions of the posterior capsule were fixed in 10% neutral buffered formalin, and then processed for paraffin histology. […] Stained slides were imaged using an Olympus VS110 Virtual Microscope System, and intimal thickness was quantified at 5 random areas in the synovial intima using ImageJ.

[10] = test system: ACL function; assay: Drawer test (A-P laxity), rabbit stifle joint immobilization model; type: in vivo; conditions: 8 weeks after pellet implantation; versus control
From the text: as §2, with “After another 8 weeks the animals were euthanized, and the joints immediately tested for stiffness in extension and anterior-posterior (A-P) laxity.” left out
After flexion-extension testing, a custom loading fixture was used to assess sagittal-plane laxity (drawer test), which is related to cruciate ligament integrity (Tochigi et al., 2011). […] Force and displacement data were continuously recorded through the sequence of tests, which consisted of three cycles to adjust leg placement for neutral starting position, followed by three cycles of data collection. […]

Row | SMILES | Effect on normal wound healing [1] | Maximum dose carried in PLGA pellets [2] | Percent α-SMA positive [3] | Maximum torque (joint stiffness) [4] | Compaction rate [5] | PTOA progression at 12 months [6] | PTOA progression at 6 months [7] | Development of fibrosis [8] | Maximum compaction at 48 hours [5] | Maximum compaction at 48 hours ([5]; listed as beta-aminopropionitrile) | Synovial intimal thickness [9] | Synovial intimal thickness ([9]; listed as sulfasalazine) | Percent α-SMA positive ([3]; listed as sulfasalazine) | Maximum torque (joint stiffness) ([4]; listed as sulfasalazine) | Dissipated energy ([4]; versus control) | Anterior drawer stiffness / A-P laxity [10] | Maximum compaction at 48 hours ([5]; listed as Sulfasalazine)
1 | O=C(O)[C@@H]1C[C@@H](O)CN1 (relative stereo) [CHP, Cis-hydroxyproline] | Neither CHP nor BAPN retarded normal wound healing | 250±3.2 μg CHP/mg pellet | only slightly lower than control | Neither BAPN nor CHP had significant effects | somewhat lower than control | – | – | – | – | – | – | – | – | – | – | – | –
2 | CCC1(CCC(C)C)C(=O)NC(=O)NC1=O [amobarbital] | – | – | – | – | – | moderate degenerative changes were observed; also recorded: less effective | dramatically forestalled the progression of PTOA; also recorded: highly effective in preventing changes | – | – | – | – | – | – | – | – | – | –
3 | N#CCCN [BAPN, beta-amino propionitrile] | Neither CHP nor BAPN retarded normal wound healing | 126±5 μg BAPN/mg pellet | nearly significantly lower | Neither BAPN nor CHP had significant effects | somewhat lower than control | – | – | prevented the development of fibrosis | significantly lower | significantly inhibited this effect | – | – | – | – | – | – | –
4 | O=C(O)c1cc(/N=N/c2ccc(S(=O)(=O)Nc3ccccn3)cc2)ccc1O [SSZ, Sulfasalazine] | – | 120±3.6 μg SSZ/mg pellet | significantly lower than control | significantly less stiff than controls | significantly lower compaction rate | – | – | – | significantly lower | – | inhibited significantly | significantly lower than control | significantly higher in control versus normal (p=0.0021) and versus sulfasalazine | reduced stiffness | significantly reduced | significantly stiffer than controls | significantly inhibited this effect

Reference: US20230001017A1, “FORMULATION FOR DELIVERY OF LUBRICIN GENE” (University of lowa Research Foundation, priority 2019, published 2023)
